Reference: ChEMBL document CHEMBL4342433, “Synthesis and anti-CVB3 activity of 4-amino acid derivative substituted pyrimidine nucleoside analogues” (Bioorg Med Chem Lett, 2020)

Tests used:
[1] = (§1) Cytotoxicity in African green monkey Vero cells assessed as reduction in cell viability by MTT assay; assay type: cell-based; conditions: chlorocebus sabaeus, Vero cells; read-out: TC50 (the source's name)
Coxsackievirus [2] = assay: Antiviral activity against CVB3 infected in African green monkey Vero cells by MTT assay; assay type: functional, organism-based, B3
[3] = Therapeutic Index, ratio of TC50 for African green monkey Vero cells to IC50 for CVB3 infected in African green monkey Vero cells; assay type: toxicity
Vero = assay: as §1; assay type: cell-based; conditions: chlorocebus sabaeus, vero; read-out: TC50 (the source's name)
Coxsackievirus [4] = assay: Antiviral activity against CVB3 infected in African green monkey Vero cells assessed as reduction in degree of lesion incubated for 5 days by microscopic method; assay type: functional, organism-based; conditions: B3

SMILES | CC50 [1] [µM] | IC50 (Coxsackievirus [2]; Coxsackievirus, B3, Vero) [µM] | other results
CNC(=O)CC[C@H](Nc1ccn([C@@H]2O[C@@](CO)(N=[N+]=[N-])[C@@H](O)[C@@H]2F)c(=O)n1)C(=O)NC | 126 | > 1000 | 
COC(=O)CC[C@H](Nc1ccn([C@@H]2O[C@@](CO)(N=[N+]=[N-])[C@@H](O)[C@@H]2F)c(=O)n1)C(=O)O | 21.5 | 648 | 
COC(=O)CC[C@H](Nc1ccn([C@@H]2O[C@@](CO)(N=[N+]=[N-])[C@@H](O)[C@@H]2F)c(=O)n1)C(=O)OC | 257 | 1000 | 
NC(=O)c1ncn([C@@H]2O[C@H](CO)[C@@H](O)[C@H]2O)n1 [RIBAVIRIN] | 31.2 | 885 | selectivity ratio ([3]; Vero cells, read-out: TI): 28.3
[N-]=[N+]=N[C@]1(CO)O[C@@H](n2ccc(N[C@@H](CCC(=O)O)C(=O)O)nc2=O)[C@@H](F)[C@@H]1O |  | 488 | CC50 (Vero): 30.7 µM
[N-]=[N+]=N[C@]1(CO)O[C@@H](n2ccc(N[C@@H](CCC(N)=O)C(N)=O)nc2=O)[C@@H](F)[C@@H]1O | 160 | > 1000 | 
COC(=O)[C@H](CCC(=O)O)Nc1ccn([C@@H]2O[C@@](CO)(N=[N+]=[N-])[C@@H](O)[C@@H]2F)c(=O)n1 | 9.3 | 870 | Activity (Coxsackievirus [4]): Dose-dependent effect
[K+].[K+].[N-]=[N+]=N[C@]1(CO)O[C@@H](n2ccc(N[C@@H](CCC(=O)[O-])C(=O)[O-])nc2=O)[C@@H](F)[C@@H]1O |  |  | CC50 (Vero): 13.5 µM; TI ([3]; vero): 20.8; IC50 (Coxsackievirus [2]; vero): 282 µM
CCNC(=O)CC[C@H](Nc1ccn([C@@H]2O[C@@](CO)(N=[N+]=[N-])[C@@H](O)[C@@H]2F)c(=O)n1)C(=O)NCC | 150 | > 1000 | 
